Data reported in ChEMBL document CHEMBL1177644, “16-bromoepiandrosterone, an activator of the mammalian immune system, inhibits glucose 6-phosphate dehydrogenase from Trypanosoma cruzi and is toxic to these parasites grown in culture” (Bioorg Med Chem, 2010).

How the values were obtained:
[1] = Inhibition of His-tagged Trypanosoma cruzi G6PDH expressed in Escherichia coli BL21 by spectrophotometry
Trypanosoma cruzi = assay: Antitrypanosomal activity against Trypanosoma cruzi Y epimastigotes assessed as viability after 72 hrs by MTS assay; format: functional; conditions: read-out: LD50 (the source's name)

Compound	IC50 [1] [µM]	LC50 (Trypanosoma cruzi) [µM]
C[C@]12CC[C@H](O)CC1=CC[C@@H]1[C@@H]2CC[C@]2(C)C(=O)[C@H](Br)C[C@@H]12	0.216	20.6
C[C@]12CC[C@H](O)C[C@@H]1CC[C@@H]1[C@@H]2CC[C@]2(C)C(=O)CC[C@@H]12 [EPIANDROSTERONE]	5.6	36.5
C[C@]12CC[C@H](O)CC1=CC[C@@H]1[C@@H]2CC[C@]2(C)C(=O)CC[C@@H]12 [PRASTERONE]	25	
C[C@]12CC[C@H](O)C[C@@H]1CC[C@@H]1[C@@H]2CC[C@]2(C)C(=O)[C@H](Br)C[C@@H]12 [16.ALPHA.-BROMOEPIANDROSTERONE]	0.086	12.4
